Experimental data taken from patent US4311699A, “Aminoacid derivatives of cephalosporin compounds” (priority 1980, dated 1982).
≈ marks a conversion by molar mass, not a printed value.

Experiments:
Assay in all cases: in vitro antibacterial activity, minimal inhibitory concentration
Assay type in all cases: cell-based
E. coli Brig = conditions: Escherichia coli
From the text: (§1) The compounds of the invention are new chemical compounds that are used as pharmacological agents and especially as broad spectrum antibacterial agents. They are active in vitro against strains of both gram-positive and gram-negative bacteria.
(§2) Minimal Inhibitory Concentration (μg/ml)

E. coli Vogel = conditions: Escherichia coli
From the text: as §1, §2

Entero. cloacae = conditions: Enterobacter cloacae
From the text: as §1, §2

Klebs. pneu. = test system: Klebs. pneu.
From the text: as §1, §2

Prot. vulg. = test system: Prot. vulg.
From the text: as §1, §2

Pseudomonas #28 = conditions: Pseudomonas #28, in vitro; read-out: Minimal Inhibitory Concentration
From the text: as §1, §2

Pseudomonas BRK 12-4-4 = conditions: BRK1244; Pseudomonas BRK 12-4-4, in vitro
From the text: as §1, §2

Pseudomonas UI 18 = conditions: UI18; Pseudomonas UI 18, in vitro
From the text: as §1, §2

Serr. marces. = test system: Serr. marces.
From the text: as §1, §2

Staph. aureus S18733 = conditions: Staphylococcus aureus
From the text: as §1, §2

Staph. aureus UC-76 = conditions: Staphylococcus aureus, UC76; Staph. aureus UC-76, in vitro
From the text: as §1, §2

Strep. fec. = test system: Strep. fec.
From the text: as §1, §2

SMILES | MIC (E. coli Brig) [µg/mL] | MIC (E. coli Vogel) [µg/mL] | MIC (Entero. cloacae) [µg/mL] | MIC (Klebs. pneu.) [µg/mL] | MIC (Prot. vulg.) [µg/mL] | MIC (Pseudomonas #28) [µg/mL] | MIC (Pseudomonas BRK 12-4-4) [µg/mL] | MIC (Pseudomonas UI 18) [µg/mL] | MIC (Serr. marces.) [µg/mL] | MIC (Staph. aureus S18733) [µg/mL] | MIC (Staph. aureus UC-76) [µg/mL] | MIC (Strep. fec.) [µg/mL]
CC(=O)N[C@@H](C)C(=O)Nc1ccc(-c2ncc(C(=O)N[C@@H](C(=O)NC3C(=O)N4C(C(=O)O)=C(CSc5nnnn5C)CSC34)c3ccccc3)c(O)n2)cc1 (stereo partly drawn) [Example 26, N-[2-[4-(N-Acetyl-L-alanylamino)phenyl]-4-hydroxy-5-pyrimidinylcarbonyl]-7-[D-2-amino-2-phenylacetamido]-3-[[(1-methyl-1H-tetrazol-5-yl)thio]methyl]-3-cephem-4-carboxylic acid] | 12.5 (≈ 15.9 µM) | 3.1 (≈ 3.93 µM) | 12.5 (≈ 15.9 µM) | 6.3 (≈ 8 µM) | 12.5 (≈ 15.9 µM) | 6.3 (≈ 8 µM) | 12.5 (≈ 15.9 µM) | 12.5 (≈ 15.9 µM) | 50 (≈ 63.5 µM) | 12.5 (≈ 15.9 µM) | 6.3 (≈ 8 µM) | 50 (≈ 63.5 µM)
CC(=O)N[C@@H](C)C(=O)Nc1ccc(-c2ncc(C(=O)N[C@@H](C(=O)NC3C(=O)N4C(C(=O)O)=C(CSc5nnnn5CC(=O)O)CSC34)c3ccccc3)c(O)n2)cc1 (stereo partly drawn) [Example 33] | 12.5 (≈ 15 µM) | 1.6 (≈ 1.92 µM) | 6.3 (≈ 7.57 µM) | 6.3 (≈ 7.57 µM) | 3.1 (≈ 3.73 µM) | 6.3 (≈ 7.57 µM) | 12.5 (≈ 15 µM) | 12.5 (≈ 15 µM) | > 50 | 25 (≈ 30.1 µM) | 6.3 (≈ 7.57 µM) | > 50
CC(=O)N[C@H](C)C(=O)Nc1ccc(-c2ncc(C(=O)N[C@@H](C(=O)NC3C(=O)N4C(C(=O)O)=C(CSc5nnnn5C)CSC34)c3ccc(O)cc3)c(O)n2)cc1 (stereo partly drawn) [Example 31, N-[2[4-(N-Acetyl-D-alanylamino)phenyl]-4-hydroxy-5-pyrimidinyl-carbonyl]-7-[D-2-amino-2-(4-hydroxyphenyl)acetamido]-3-[[(1-methyl-1H-tetrazol-5-yl)thiol]methyl]-3-cephem-4-carboxylic acid] | 6.3 (≈ 7.84 µM) | 1.6 (≈ 1.99 µM) | 6.3 (≈ 7.84 µM) | 1.6 (≈ 1.99 µM) | 6.3 (≈ 7.84 µM) | 3.1 (≈ 3.86 µM) | 3.1 (≈ 3.86 µM) | 3.1 (≈ 3.86 µM) | 50 (≈ 62.2 µM) | 6.3 (≈ 7.84 µM) | 3.1 (≈ 3.86 µM) | 25 (≈ 31.1 µM)
